The values that follow come from paper PMC6429356, “Development of Anthraquinone Analogues as Phosphoglycerate Mutase 1 Inhibitors” (Molecules, 2019).

Entries after “also recorded” stand apart in the source; their conditions may differ. Read-outs that look alike come from different tables or passages of the source.

Data set [1] relates to PGAM1 mutations (F22A, R116H and R191H). The data set is described as follows: Inhibition of PGAM1 mutants compared with wild type. In kind it is biochemical. The note with it: 5 μM compound. The source says: To further understand the molecular mechanism of the anthraquinone derivatives interacting with PGAM1, we determined the X-ray structure of PGAM1 in complex with compound 9i at resolution of 1.98 Å (Table 5). Compound 9i occupied a novel allosteric site adjacent to substrate binding site with nice electron density (Figure 3A,B). The allosteric pocket was surrounded by the residues of F22, R90, K100, R116 and R191. In detail, the anthraquinone scaffold and sulfonamide of compound 9i interacted with the main chain carbonyl of K100 through water bridges (Figure 3C). In addition, a hydrophobic interaction was observed between F22 and chlorine-substituted phenyl ring of compound 9i (Figure 3C). […]
Firstly, 1 μL inhibitor in dimethyl sulfoxide (DMSO) incubated with 49 μL 4.6 nM recombinant PGAM1, then 50 μL enzyme mix containing 3 units/mL enolase (Sigma-Aldrich, Saint Louis, MO, USA), 3 units/mL recombinant pyruvate kinase M2 (Sigma-Aldrich), 0.6 units/mL recombinant lactatdehydrogenase (LDH, Sigma-Aldrich), 100 mM Tris-HCl, 100 mM KCl, 5 mM MgCl2, 1 mM adenosine diphosphate (ADP), 0.2 mM the reduced form of nicotinamide adenine dinucleotide (NADH) and 4 mM 3PG was added. PGAM1 activity was measured as the decrease in OD at 340 nm. […] The other three enzyme activity was measured as the decrease in OD at 340 nm. […]

Data set [2] concerns the target T1, PGAM1 (Homo sapiens, UniProt P18669).
T1 construct: His6 (C); made in house
The experiment in a line: PGAM1 enzymatic assay (enolase-pyruvate kinase-LDH coupled, OD 340 nm). The format is biochemical. As to conditions: optimized enzymatic assay; mean ± s.d. (n = 3). As for the experimental part:
(§1) Firstly, 1 μL inhibitor in dimethyl sulfoxide (DMSO) incubated with 49 μL 4.6 nM recombinant PGAM1, then 50 μL enzyme mix containing 3 units/mL enolase (Sigma-Aldrich, Saint Louis, MO, USA), 3 units/mL recombinant pyruvate kinase M2 (Sigma-Aldrich), 0.6 units/mL recombinant lactatdehydrogenase (LDH, Sigma-Aldrich), 100 mM Tris-HCl, 100 mM KCl, 5 mM MgCl2, 1 mM adenosine diphosphate (ADP), 0.2 mM the reduced form of nicotinamide adenine dinucleotide (NADH) and 4 mM 3PG was added. PGAM1 activity was measured as the decrease in OD at 340 nm. In addition, we performed a counter screening in which 4mM 2PG was added to 50 μL reaction mix containing the indicated inhibitor, 3 units/mL enolase (Sigma-Aldrich), 3 units/mL recombinant pyruvate kinase M2 (Sigma-Aldrich), 0.6 units/mL recombinant LDH (Sigma-Aldrich), 100 mM Tris-HCl, 100 mM KCl, 5 mM MgCl2, 1 mM ADP and 0.2 mM NADH. The other three enzyme activity was measured as the decrease in OD at 340 nm.

The next data set can be described thus: Solubility. The format is physicochemical. As to conditions: remark in text, no method given.
The target of data set [3] is T1, PGAM1. The experiment in a line: Substrate competitive assay with 3PG. The format is biochemical.
In another data set the test system is A549 cells. The experiment in a line: Cell viability assay (MTT, 72 h), A549. As to conditions: Homo sapiens, proliferation, mean ± s.d. (n = 3). In kind it is cell-based. As for the experimental part:
(§2) The H1299 cell line was obtained from Guangzhou Jenniobio Biotechnology Co., Ltd. (Guangzhou, China), PC9 and A549 cells were gifted from Deng Jiong’s lab in the School of Medicine, Shanghai Jiao Tong University, Shanghai, China). H1299, PC9 cells were cultured in RPMI-1640 medium and A549 cells were cultured in F-12K medium containing 10% fetal bovine serum (FBS), 100 units/mL of Penicillin and 100 μg/mL Streptomycin. In cell viability assays, 2000 H1299 cells, A549 cells or 1000 PC9 cells per well were seeded in 96-well plate. After attachment for 24 h, the cells were treated with indicated inhibitor for 72 h. After incubation with 0.5 mg/mL methylthiazolyldiphenyl-tetrazolium bromide (MTT) for 4 h, cell viability was measured as the OD at 570 nm.

A further data set has as its system H1299 cells. The experiment in a line: Cell viability assay (MTT, 72 h), H1299. The format is cell-based. The note with it: Homo sapiens, NCI-H1299, proliferation, mean ± s.d. (n = 3). As for the experimental part: as §2
Data set [4] relates to enolase-pyruvate kinase-LDH. The experiment in a line: Counter screening: control linked enzyme assay with 2PG. In kind it is biochemical. As to conditions: 0.5 μM compound, pyruvate kinase M2, LDH without PGAM1, mean ± s.d. (n = 2). As for the experimental part:
as §1
On the technique in general: The purpose of a counterscreen is to sort out artefacts and off-target activity.

The next data set has as its system PC9 cells. The experiment in a line: Cell viability assay (MTT, 72 h), PC9. The note with it: Homo sapiens, PC-9, proliferation, mean ± s.d. (n = 3). In kind it is cell-based. As for the experimental part:
as §2

The next data set concerns MDA-MB-231 cells. Also noted: method as in PMID 16200062. The note with it: Figure 1; read-out: MDA-MB-231 cells IC50 (reported inhibitor); cited from earlier work.
In data set [5] the target is T1, PGAM1. Also noted: method as in PMID 16200062, PMID 28611670, PMID 23153533, PMID 29530347. The note with it: Figure 1; read-out: PGAM1 IC50 (reported inhibitors); cited from earlier work.

T1 sequence (P18669 whole entry): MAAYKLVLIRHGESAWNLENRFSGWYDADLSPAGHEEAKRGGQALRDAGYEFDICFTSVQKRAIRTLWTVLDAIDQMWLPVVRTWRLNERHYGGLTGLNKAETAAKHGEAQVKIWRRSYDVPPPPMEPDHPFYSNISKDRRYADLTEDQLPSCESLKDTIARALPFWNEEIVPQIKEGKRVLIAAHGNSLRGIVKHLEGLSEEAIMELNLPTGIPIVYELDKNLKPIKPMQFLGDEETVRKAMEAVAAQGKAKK

As to `O=C1c2ccccc2C(=O)c2c1cc(NS(=O)(=O)c1ccc(Cl)cc1)c(O)c2O` [Compound 9i, 4-Chloro-N-(3,4-dihydroxy-9,10-dioxo-9,10-dihydroanthracen-2-yl) benzenesulfonamide], the “Inhibition of PGAM1 mutations versus wild type” value in [1] was “failed to inhibit mutations of PGAM1 (F22A, R116H and R191H) as effectively as the wild type”. Also, the IC50 – broadly, the concentration that inhibits the measured activity by half – stood at 0.27 ± 0.04 µM on PGAM1 [2], 12.7 ± 2.7 µM with A549 cells, 6.9 ± 1.2 µM in the data set on H1299 cells and 13.8 ± 1 µM in the data set with PC9 cells. For the same compound, the Solubility result in the data set “Solubility” is listed as “good solubility”. Besides, the “Mode of inhibition with respect to substrate 3PG” value at PGAM1 [3] is on record as “noncompetitive inhibitor; also recorded: non-competitive; also recorded: noncompetitive binding”. In addition, the “Inhibition in the Control Linked Enzyme Assay (0.5 μM)” value in [4] is given as −6.4 ± 5.0%.
Take `C#CCCCC(=O)OC(C)(C)C1CCC2(CO2)C(OC(=O)NC(Cc2c[nH]c3ccccc23)C(=O)OCc2ccccc2)C1` (stereo not shown) [MJE3]: the values for the IC50 in the data set with MDA-MB-231 cells and on PGAM1 [5] were 19 µM and 33 µM, respectively.
